From patent US20260193294A1, “POLYPEPTIDE INHIBITOR, AND PREPARATION METHOD THEREFOR AND USE THEREOF” (SHANGHAI HANSOH BIOMEDICAL CO., LTD., priority 2022, published 2026)
Values belong to the molecule of their own block, whether it stands above or below them. Positions of bridges follow the written chain, without caps; N, C: chain ends. Non-standard residues stand in square brackets, D forms with d. Residues, ends and D or L forms follow the SMILES beside them. *: point of attachment. X1 = CN(CCNC(=O)CCOCCOCC[N+](C)(C)CCNC(=O)COCCOCCNC(=O)COCCOCCNC(=O)CC[C@H](NC(=O)CCCCCCCCCCCCCCC(=O)O)C(=O)O)*; Trp(7-Me) = Cc1cccc2c(C[C@H](N)C(=O)O)c[nH]c12; 2Nal = N[C@@H](Cc1ccc2ccccc2c1)C(=O)O; AEF = NCCOc1ccc(C[C@H](N)C(=O)O)cc1; 3Pal = N[C@@H](Cc1cccnc1)C(=O)O; Pen = CC(C)(S)[C@H](N)C(=O)O; Thp = NC1(C(=O)O)CCOCC1; Sar = CNCC(=O)O

What was measured:
[1] = Stability in plasma (human); type: in vitro ADME; conditions: human, plasma
Method: (§1) To study the stability of the compounds of the examples in the plasmas of mice, rats, dogs and humans.
(§2) Preparation of plasma: Animal or human whole blood was collected, then put into a test tube containing an anticoagulant, and centrifuged at 3500 rpm for 10 min, and the upper pale yellow plasma was collected; • working solution of 10 μM test compound: a stock solution was prepared with DMSO, and the working solution was prepared with 100 mM phosphate buffer; • working solution of 10 μM positive control: • procaine: 2.36 mg of procaine was weighed and diluted into a 10 mM stock solution with 1 mL of DMSO. 10 μL of the 10 mM stock solution was pipetted into 1 mL of 100 mM phosphate buffer, such that the final concentration was 100 μM; and • enalapril: 4.93 mg of enalapril was weighed and diluted into a 10 mM stock solution with 1 mL of DMSO; and 10 μL of the 10 mM stock solution was pipetted into 1 mL of 100 mM phosphate buffer, such that the final concentration was 100 μM.
(§3) In a 96-well plate, 285 μL of plasma and 15 μL of 10 μM compound (test compound, and positive control) were successively added and incubated at 37° C.
(§4) 40 μL was taken at 0, 15, 30, 60, 90, and 120 min (sampling points could be fine-tuned), respectively, and 160 μL of an acetonitrile stop solution containing an internal standard was added.
(§5) After centrifugation (3500 rpm, 10 min), 50 μL of the supernatant was taken, diluted by adding 50 μL of DDH2O, and then injected for LC-MS/MS.
(§6) • Instrument: Shimadzu LC-20 AD • Chromatographic column: Phenomenex Gemiu® C18 (50*4.6 mm, 5 μm particle size) • Mobile phase: A: acetonitrile, B: 0.1% formic acid solution • Elution gradient: […]: 5% A→95% A, 2.0-2.1 min: […] • Flow rate: 0.8 mL/min • Run time: 5.0 min • Injection volume: 5 μL
(§7) • Instrument: API4000 liquid chromatography mass spectrometer, AB, US • Ion source: electrospray ionization source (ESI) • Drying gas: N2, temperature 500° C. • Electrospray voltage: 5500V • Detection mode: positive ion detection • Scan mode: multi reaction monitoring (MRM) mode • Scan time: 0.1 s
(§8) All calculations were carried out using Microsoft Excel. The peak area ratio was determined by an extracted ion chromatogram.
(§9) The residual percentage of the compound at each time point was calculated by the following equation: Residual percentage at t hours (%)=peak area ratio at t hours/peak area ratio at 0 hour×100%, in which the peak area ratio at t hr was the peak area ratio of the […] at t min; and • the slope value k was determined by linear regression on the natural logarithm of the curve of the residual percentage of the parent drug versus the incubation time.
(§10) In vitro half-life (in vitro t1/2) was determined by the slope value: […]

in vitro = in vitro ADME; conditions: plasma
Method: as §1, §2, §3, §4, §5, §6, §7, §8, §9, §10

in vivo = conditions: male, SD, rat, iv, 1 mg/kg
Method: (§11) SD rats were used as test animals to study the pharmacokinetic behavior of the compounds of the examples in the rats (plasma) after oral or IV administration.
Preparation of intravenous drug: PBS
(§12) The compounds of the examples were weighed and dissolved in this solution, vortexed, ultrasonicated for 5 min, and filtered through a 0.22 μm filter membrane to obtain colorless clear solutions with a concentration of 0.2 mg/mL.
(§13) 3 SD rats/group, male were fasted overnight and then respectively administered IV at a dose of 1 mg/kg and a volume of 5 mL/kg.
(§14) • Before administration and at 0.083 h, 0.25 h, 0.5 h, 1.0 h, 2.0 h, 4.0 h, 6.0 h, 8.0 h, and 24.0 h after administration (IV), 0.2 mL of blood was collected from the jugular vein, placed in an EDTA-2K test tube, and centrifuged at 6000 rpm for 6 min at 4° C. to separate plasma, which was stored at −20° C.; and the rats were fed 4 h after administration.
(§15) 1) Acetonitrile (200 μL) was added to the plasma sample (50 μL) for precipitation, and the mixture was mixed and centrifuged at 4500 rpm for 15 min.
(§16) 2) The treated supernatant solution was taken and subjected to LC/MS/MS to analyze the concentrations of the test compounds. LC/MS/MS analysis instrument: AB Sciex Triple Quad 6500+.
(§17) • Liquid phase conditions: Shimadzu LC-30AD pump • Chromatographic column: HALO 90A PFP 2.7 μm 2.1×30 mm, mobile phase: liquid A: 5% acetonitrile aqueous solution (0.1% formic acid), and liquid B: an aqueous solution of 95% acetonitrile (0.1% formic acid) • Flow rate: 0.6 mL/min • Elution time: 0-2.0 min, the eluent was as follows:
(§18) The main pharmacokinetic parameters were calculated using WinNonlin 8.1.

[2] = test system: IL23-induced rat otitis model; assay: In vivo pharmacodynamics in IL23-induced rat otitis model (ear thickening); design: species or system SD rats; conditions: 10 mg/kg, gavage
Source text: To evaluate the in vivo efficacy of the compounds in an IL23-induced rat otitis model.
SD rats, 6-8 weeks old, male, purchased from Jiangsu GemPharmatech Co., Ltd.
• a. […]

[3] = Pharmacokinetic determination in rats (IV); conditions: male, SD, rat, plasma, 1 mg/kg
Method: as §11
Preparation of intravenous drug: PBS
as §12, §13, §14, §15, §16, §17, §18

[4] = test system: activation of STAT3 phosphorylation by hIL23 in DB cells; assay: Blocking the activation of STAT3 phosphorylation by hIL23 in DB cells (p-STAT3 ELISA); type: cell-based, Human; conditions: DB cells stimulated by rhIL-23 0.5 nM, half an hour; read-out: pStat3 IC50
Method: To determine the inhibitory activity of the compounds of the present disclosure on the activation of STAT3 phosphorylation by hIL23 in DB cells
The compounds produced above were added to DB (ATCC Cat #CRL-2289) cells to inhibit the signal transduction of rhIL-23 cytokine. The screening of compounds was carried out by a multi-well plate (suitable for ELISA assay). Generally, in the presence of some of the above compounds of the present disclosure, 6.25×10^6 cells/ml of DB cells were stimulated by rhIL-23 (0.5 nM, R&D SYSTEMS) in RPMI medium (Invitrogen) containing 10% of FBS, and after half an hour, lysis was carried out on ice using 50 μL of 2×lysis buffer (CST). The content of p-STAT3 in the lysate was determined by PathScan Phospho-Stat3 (Tyr705) Sandwich ELISA Kit (CST Cat #7300C), so as to calculate the activity of the compounds of the present disclosure in blocking rhIL23 signal transduction in DB cells.
The inhibition rate was calculated as follows: […]
By using log (inhibitor) vs. response—Variable slope (four parameters) in Graphpad, the data of ELISA experiment results were subjected to non-linear regression fitting to fit a curve and obtain the IC50 value.

[5] = Pharmacokinetic determination in beagle dogs (IV); conditions: male, dog, plasma, 0.2 mg/kg
Method: Beagle dogs were used as test animals to study the pharmacokinetic behavior of the compounds of the examples in the rats (plasma) after IV administration.
3 beagle dogs/group, male, from Yizheng Anlimao Biotechnology Co., Ltd.
The compounds of the examples were weighed and dissolved in this solution, vortexed, ultrasonicated for 5 min, and filtered through a 0.22 μm filter membrane to obtain colorless clear solutions with a concentration of 0.1 mg/mL.
3 beagle dogs/group, male were fasted overnight and then respectively administered IV at a dose of 0.2 mg/kg and a volume of 2 mL/kg.
1) Acetonitrile (200 μL) was added to the plasma sample (50 L) for precipitation, and the mixture was mixed and centrifuged at 4500 rpm for 15 min.
as §16
Premier Peptide CSH C18 130A 1.7 μm 2.1*100 mm Column, mobile phase: liquid A: 5% acetonitrile aqueous solution (0.1% formic acid), and liquid B: an aqueous solution of 95% acetonitrile (0.1% formic acid) • Flow rate: 0.6 mL/min • Elution time: 0-2.0 min, the eluent was as follows:
as §18

Compound: CC(=O)NCCCC[C@@H]1NC(=O)[C@H](Cc2c[nH]c3c(C)cccc23)NC(=O)[C@H]([C@@H](C)O)NC(=O)[C@H](CC(N)=O)NC(=O)[C@@H](NC(C)=O)C(C)(C)SSC(C)(C)[C@@H](C(=O)N[C@@H](Cc2ccc(OCCN)cc2)C(=O)N[C@@H](Cc2ccc3ccccc3c2)C(=O)NC2(C(=O)N[C@@H](CCC(=O)O)C(=O)N[C@@H](CC(N)=O)C(=O)N[C@@H](Cc3cccnc3)C(=O)N(C)CCNC(=O)CCOCCOCC[N+](C)(C)CCNC(=O)COCCOCCNC(=O)COCCOCCNC(=O)CC[C@H](NC(=O)CCCCCCCCCCCCCCC(=O)O)C(=O)O)CCOCC2)NC1=O [Example 1] (Ac-[Pen]NT[Trp(7-Me)]K(Ac)[Pen][AEF][2Nal][Thp]EN[3Pal]-X1; disulfide 1-6)
half-life at 0.5 μM [1]: 64.6 h
remaining at 4 h, 0.5 µM [1]: 94.3%
half-life at 0.5 μM (in vitro; dog): 148 h
remaining at 4 h, 0.5 µM (in vitro; dog): 99.7%
half-life at 0.5 μM (in vitro; mouse): 32 h
remaining at 4 h, 0.5 µM (in vitro; mouse): 93.8%
half-life at 0.5 μM (in vitro; rat): 75.7 h
remaining at 4 h, 0.5 µM (in vitro; rat): 98.7%
half-life (in vivo): 4.9 h
Inhibition rate on Day 4 (ear thickening) ([2]; QD): 51.22%
AUC(0-inf) [3]: 46700 ng·h/mL
AUC(0-t) [3]: 45400 ng·h/mL
C0 [3]: 10300 ng/mL
MRT [3]: 6.1 h
clearance [3]: 0.35 mL/min/kg
IC50 [4]: 0.025 nM

AUC(0-inf) [5]: 2030 ng·h/mL
AUC(0-t) [5]: 2020 ng·h/mL
C0 [5]: 1250 ng/mL
MRT [5]: 3.1 h
clearance [5]: 1.68 mL/min/kg
half-life [5]: 4.1 h
AUC(0-inf) [3]: 2670 ng·h/mL
AUC(0-t) [3]: 2620 ng·h/mL
C0 [3]: 4290 ng/mL
MRT [3]: 0.9 h
clearance [3]: 6.2 mL/min/kg
half-life [3]: 0.7 h
Compound: CC(=O)NCCCC[C@@H]1NC(=O)[C@H](Cc2c[nH]c3c(C)cccc23)NC(=O)[C@H]([C@@H](C)O)NC(=O)[C@H](CC(N)=O)NC(=O)[C@@H](NC(C)=O)C(C)(C)SSC(C)(C)[C@@H](C(=O)N[C@@H](Cc2ccc(OCCN)cc2)C(=O)N[C@@H](Cc2ccc3ccccc3c2)C(=O)NC2(C(=O)N[C@@H](CCC(=O)O)C(=O)N[C@@H](CC(N)=O)C(=O)N[C@@H](Cc3cccnc3)C(=O)N(C)CC(N)=O)CCOCC2)NC1=O [PN-235, reference compound] (Ac-[Pen]NT[Trp(7-Me)]K(Ac)[Pen][AEF][2Nal][Thp]EN[3Pal][Sar]-NH2; disulfide 1-6 (inferred); N-terminus and C-terminus assumed)
Inhibition rate on Day 4 (ear thickening) ([2]; BID): 55.35%
